The target in this assay is T1, KDR/Flk-1 receptor epitope Y1214 (Homo sapiens, UniProt P35968).
T1 construct: host or cells: HUVEC (human umbilical vein endothelial cells)
The assay is described as follows: Phosphorylation of the Y1214 epitope of KDR/Flk-1 in VEGF-treated HUVECs (Western blot with anti-Y1214 antibody). The assay is classed as cell-based. As to conditions: VEGF-treated HUVEC cell lysate, 0.007-5.0 uM compound, FIG. 1. The method, then:
HUVECs were obtained from TCS Cellworks, Buckingham, UK (Catalogue number ZHS 8965) and cultured in Large Vessel Endothelial Cell Basal Medium+recommended 5 supplements obtained from TCS Cellworks (catalogue numbers ZHM 2951 and ZHS 8965). Cells were used when close to confluence in 3×75 cm^2 tissue culture flasks. Prior to treatment with inhibitor cells were cultured overnight in Basal Medium without supplements.
HUVECS were treated with inhibitors as follows. […] After 82 minutes 50 ng/ml VEGF was added to the cells and the cells incubated for a further 8 minutes at 37° C. After this further incubation the culture medium was removed from the cells and the cells lysed with 2.5 ml sample buffer [Sample buffer: 4 parts NuPage sample buffer (Novex, NP0007, Invitrogen, Paisley, Scotland) to 1 part distilled water]. The lysate was collected, 3 μl of β-mercaptoethanol added and heated to 95° C. for 10 minutes to ensure complete reduction and denaturation. The lysates can be stored at −20° C. until analysed.
Lysates were analysed using SDS polyacrylamide gel electrophoresis (PAGE) to separate the proteins within the lysates. […]
Nitrocellulose membranes were incubated for 1 hour in 5% solution of dried, skimmed milk powder in PBST [Marvel/PBST] at room temperature. […] The light from this is detected by photographic film, for example Kodak Biomax ML.
In general terms: In western blotting, separated proteins are transferred to a membrane and probed.

T1 sequence (P35968 20-1356): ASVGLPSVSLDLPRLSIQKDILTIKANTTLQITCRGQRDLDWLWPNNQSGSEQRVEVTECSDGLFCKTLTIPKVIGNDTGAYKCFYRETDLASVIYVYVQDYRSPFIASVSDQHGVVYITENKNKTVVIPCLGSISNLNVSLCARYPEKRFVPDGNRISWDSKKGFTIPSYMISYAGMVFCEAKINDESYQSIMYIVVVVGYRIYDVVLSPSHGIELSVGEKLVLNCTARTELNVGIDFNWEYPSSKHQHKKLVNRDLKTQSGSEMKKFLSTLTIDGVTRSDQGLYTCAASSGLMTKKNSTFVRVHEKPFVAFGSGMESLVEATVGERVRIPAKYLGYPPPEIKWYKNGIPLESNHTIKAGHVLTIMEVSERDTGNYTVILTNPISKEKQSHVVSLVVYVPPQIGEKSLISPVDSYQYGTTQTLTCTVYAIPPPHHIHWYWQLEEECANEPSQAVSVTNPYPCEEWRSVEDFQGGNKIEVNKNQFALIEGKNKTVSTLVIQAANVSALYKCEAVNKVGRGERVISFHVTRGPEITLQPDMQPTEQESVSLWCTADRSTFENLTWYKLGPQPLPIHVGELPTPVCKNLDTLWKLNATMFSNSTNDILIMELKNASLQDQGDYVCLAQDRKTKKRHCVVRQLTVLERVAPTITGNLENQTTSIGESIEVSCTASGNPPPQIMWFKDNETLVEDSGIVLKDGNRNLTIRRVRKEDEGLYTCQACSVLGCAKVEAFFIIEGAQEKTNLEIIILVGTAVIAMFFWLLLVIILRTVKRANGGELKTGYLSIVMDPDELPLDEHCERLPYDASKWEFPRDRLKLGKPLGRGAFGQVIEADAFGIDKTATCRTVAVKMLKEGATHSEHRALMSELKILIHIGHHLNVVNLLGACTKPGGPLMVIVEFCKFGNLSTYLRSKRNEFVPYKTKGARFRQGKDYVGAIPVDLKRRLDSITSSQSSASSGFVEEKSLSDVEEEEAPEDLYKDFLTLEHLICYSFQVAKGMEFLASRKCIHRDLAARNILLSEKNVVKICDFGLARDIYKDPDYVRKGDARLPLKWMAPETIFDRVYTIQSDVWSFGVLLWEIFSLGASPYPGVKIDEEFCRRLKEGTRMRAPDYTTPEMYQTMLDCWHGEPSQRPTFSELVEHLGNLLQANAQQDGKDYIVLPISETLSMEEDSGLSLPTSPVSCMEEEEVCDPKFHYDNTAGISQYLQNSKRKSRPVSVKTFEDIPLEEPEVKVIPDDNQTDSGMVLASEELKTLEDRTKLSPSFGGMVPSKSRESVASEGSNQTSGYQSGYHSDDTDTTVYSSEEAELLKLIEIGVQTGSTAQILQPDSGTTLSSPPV

As for `COc1cc2c(Oc3ccc4[nH]c(C)cc4c3F)ncnc2cc1OCCCN1CCCCC1` [4[(4-fluoro-2-methyl-1H-indol-5-yl)oxy]-6-methoxy-7-(3-piperidin-1-ylpropoxy)quinazoline], the “phosphorylation of the Y1214 epitope” value is listed as “dose dependent decrease in phosporylation”.

For the origin of these results see patent publication US20050221317A1, “Use of an epitope of vascular endothelial growth factor receptor kdr/flk-1” (AstraZeneca AB, priority 2002, published 2005).
